Test results from BindingDB's records for patent US20250388560 (Hitgen, 2025).

What follows are compounds tested against E3 ubiquitin-protein ligase TRIM21 (UniProt P19474) (assay: Detection of SPR Binding Assays (Surface Plasmon Resonance Binding Assay) of TRIM21 Compounds).
Experimental: The protein fixation buffer, the running buffer A and the running buffer B were prepared and filtered through a […] membrane prior to use. TRIM21 Protein FixationThe running buffer A was used as the protein fixation buffer. The protein fixation buffer and the TRIM21 protein were mixed to prepare a 40.0 µg/mL mixed solution.

E3 ubiquitin-protein ligase TRIM21, sequence (P19474 whole entry): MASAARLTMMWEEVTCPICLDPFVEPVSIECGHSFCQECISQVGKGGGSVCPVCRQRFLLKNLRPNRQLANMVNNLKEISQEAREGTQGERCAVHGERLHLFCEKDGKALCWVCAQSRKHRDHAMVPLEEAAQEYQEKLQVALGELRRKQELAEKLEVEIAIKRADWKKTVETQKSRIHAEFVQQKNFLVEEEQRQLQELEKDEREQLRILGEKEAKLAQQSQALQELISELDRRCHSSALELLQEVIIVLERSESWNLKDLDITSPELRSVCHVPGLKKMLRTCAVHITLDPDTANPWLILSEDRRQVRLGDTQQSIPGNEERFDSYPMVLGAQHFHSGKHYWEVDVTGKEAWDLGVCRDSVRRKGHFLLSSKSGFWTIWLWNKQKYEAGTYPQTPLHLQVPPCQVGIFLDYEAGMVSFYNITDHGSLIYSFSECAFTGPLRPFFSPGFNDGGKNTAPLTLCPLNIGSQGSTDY

SMILES | Kd [µM]
CN(CC1CCCCC1)C(=O)c1ccc(-c2ccccc2)cc1S(C)(=O)=O [US20250388560, Compound 58] | > 10
CN(CC1CCCCC1)C(=O)c1ccc(-c2cccc3[nH]ccc23)cc1S(C)(=O)=O [US20250388560, Compound 50] | > 10
Cc1cccc(-c2ccc(C(=O)N(C)CC3CCCCC3)c(S(C)(=O)=O)c2)c1 [US20250388560, Compound 44] | > 10
CSc1ccccc1-c1ccc(C(=O)N(C)CCN2CCOCC2)c(S(C)(=O)=O)c1 [US20250388560, Compound 21] | > 10
CN(CC1CCCCC1)C(=O)c1ccc(-c2cccc3cc[nH]c23)cc1S(C)(=O)=O [US20250388560, Compound 51] | > 10

Other lines, results leading:

Kd [µM] | SMILES
> 10 | CN(CC1CCCCC1)C(=O)c1ccc(-c2cccc3occc23)cc1S(C)(=O)=O [US20250388560, Compound 48]
< 0.01 | COc1cc(F)ccc1-c1ccc(C(=O)N(C)Cc2cc[nH]c(=O)c2)c(S(C)(=O)=O)c1 [US20250388560, Compound 57]
> 10 | CSc1ccccc1-c1ccc(C(=O)N(C)CCN2CCCCC2)c(S(C)(=O)=O)c1 [US20250388560, Compound 22]
< 0.01 | CSc1cc(F)ccc1-c1ccc(C(=O)N(C)Cc2cc[nH]c(=O)c2)c(S(C)(=O)=O)c1 [US20250388560, Compound 56]
< 0.01 | CSc1cc(F)ccc1-c1ccc(C(=O)N(C)CC2CCOCC2)c(S(C)(=O)=O)c1 [US20250388560, Compound 55]
